Measured values taken from US10011571B2, “Preparation method for aromatic heterocyclic compound used as selective JAK3 and/or JAK1 kinase inhibitor and application of aromatic heterocyclic compound” (SHENZHEN CHIPSCREEN BIOSCIENCES, LTD., priority 2014, dated 2018).

Experiments:
[1] = molecular target: JAK3 (Homo sapiens (Human), UniProt P52333); assay: Z'-LYTE enzymatic activity detection, JAK3; format: biochemical; conditions: test compound 30 nM; for inhibition at 0.03 µM: read-out: JAK3 % inhibitory rate @30 nM
Protocol: (§1) The basic principle of in vitro enzymatic activity assay is based on the difference between the intensities of fluorescence signals generated at different wavelengths (445 nm and 520 nm) from the phosphorylated substrate and non-phosphorylated substrate, in which the specific fluorescence-labeled substrate is phosphorylated by the kinase. When different test compounds are added, the inhibition of kinase activity is represented as the different degrees of substrate phosphorylation, and thus as the different intensities of fluorescence signal, based on which the inhibitory activity of the compound on the kinase can be calculated. Basic detection principle is illustrated in FIG. 1.
(§2) In an enzymatic inhibitory activity detection, GST-labeled human recombinant JAK kinases, including JAK1/PV4774, JAK2/PV4210, JAK3/PV3855, TYK2/PV4790 and their corresponding specific substrates, including Tyr6 (Z′-LYTE® Kinase Assay Kit-Tyrosine 6 Peptide, JAK1/PV4122), Tyr4 (Z′-LYTE® Kinase Assay Kit-Tyrosine 4 Peptide, JAK2/PV3193), Tyr4 (Z′-LYTE® Kinase Assay Kit-Tyrosine 4 Peptide, JAK3/PV3193), Tyr3 (Z′-LYTE® Kinase Assay Kit-[…], TYK2/PV3192) are used. In all tests, development reagent A (PV3297) was used as the test agent. All materials mentioned above were purchased from Invitrogen.
(§3) (1) Preparation: kinase reaction buffer (working solution) is prepared according to the instruction; a concentration gradient of the test compound is prepared by dilution using the kinase reaction buffer (the highest compound concentration is 10 μM for JAK1, JAK2, and TYK2 detection, and 1 μM for JAK3 detection, respectively).
(§4) (2) 10 μl of reaction system, comprising 2.5 μL test compound, 5 μL kinase reaction buffer and 2.5 μL ATP solution (provided by the kit), is mixed and reaction is performed at room temperature for 1 h.
(§5) (3) Controls, including a solvent control without the test compound, a negative control without ATP and a positive control with the phosphorylated substrate, are tested together with the detection. All tests are carried out in triplicate.
(§6) (4) After the enzymatic reaction, 5 μL pre-formulated development buffer is added, and reaction is performed at room temperature for 1 h. Subsequently, the reaction is terminated by adding 5 μL stop buffer.
(§7) (5) The fluorescence signal in each well is detected by an Ascent Fluoroskan FL reader (Thermo Labsystems) at an excitation wavelength of 400 nm, and emission wavelengths of 445 nm and 520 nm. The proportion of substrate phosphorylation is obtained by reference to the fluorescence signal intensity C445/F520.
(§8) (6) The enzymatic inhibitory rate of the test compound can be calculated based on the following equation: Inhibitory rate (%)=1−the proportion of substrate phosphorylation in the detection well/the proportion of substrate phosphorylation in the solvent control well. The half-inhibitory concentration (IC50) can be calculated using an IC50 calculator based on the inhibitory rates of phosphorylation for the test compounds at different concentration gradients.
(§9) Based on the above method, the compounds described herein are enzymatically evaluated in vitro for JAKs (the concentration of the test compound is 30 nM for JAK3 and JAK2 test, and 300 nM for JAK1 test) using Xeljanz (tofacitinib citrate) as the positive control.

[2] = molecular target: JAK1 (Homo sapiens (Human), UniProt P23458); assay: Z'-LYTE enzymatic activity detection, JAK1; format: biochemical; conditions: test compound 300 nM; for inhibition at 0.3 µM: read-out: JAK1 % inhibitory rate @300 nM
Protocol: as §1, §2, §3, §4, §5, §6, §7, §8, §9

[3] = molecular target: JAK2 (Homo sapiens (Human), UniProt O60674); assay: Z'-LYTE enzymatic activity detection, JAK2; format: biochemical; conditions: test compound 30 nM; read-out: JAK2 % inhibitory rate @30 nM
Protocol: as §1, §2, §3, §4, §5, §6, §7, §8, §9

[4] = tested on: CTLL-2 cells; assay: Cell growth activity assay (MTS), CTLL-2 cell model; format: cell-based, mouse; conditions: Mus musculus, CTLL-2, 300 nM, 24 h, read-out: CTLL-2 % growth rate @300 nM
Source text: (§10) MTS assay is a routine method for cell toxicity detection. The basic principle is based on the capacity of dehydrogenase in the mitochondria of living cells to reduce a novel yellow […] MTS to formazan, so that the amount of living cells is proportional to the amount of formazan product by detecting the absorbance at 490 nm (OD), thereby speculating the amount of living cells according to the OD value, and understanding the capacity of the test compound to inhibit the growth of cells or to kill the cells.
In this experiment, mouse T-cell line CTLL-2 was used. The proliferation and growth of this cell line strongly depend on IL-2, and it is commonly used to evaluate the active titer of exogenous IL-2. By inhibiting the activity of kinase JAK1/3, the proliferation of CTLL-2 can be inhibited under in vitro culture. The activation and proliferation of T-cell is also important pathological characteristics for various immunological diseases. Thus, this model is also pathologically related.
By comparing the change of absorbance generated by the cells treated by the test compounds using MTS assay, the growth inhibitory activity of the test compounds on the model cells can be realized, and thereby potential inhibitory activity of the compounds on JAK1/3 pathway can be evaluated.
(§11) MTS is performed according to routine procedure in a 96-well plate.
(§12) The model cells are inoculated into each well of the 96-well plate at an appropriate concentration (about 20,000 cells/well). After 24 h, the test compounds are added at different concentration gradients (the highest concentration of 10 μM). A solvent control (DMSO) and a negative control are also performed at the same time. Each experiment is repeated for 3 times. The cells are detected after cultured for another 24 h.
CTLL-2 is a suspended cell. After incubation, 20 μL pre-formulated mixture of MTS and PMS (in a ratio of 20:1) is directly added to each well. After incubation at 37° C. for 2 h, it is then detected by a microplate reader (490 nm).
The effect of the test compound on cell growth is calculated by comparing the change of OD values between the test well and the solvent control well, after subtracting the background of the negative control. For the test compounds at different concentration gradients, the inhibitory rates on the growth of model cells and their half-growth inhibitory concentrations (GI50) are each calculated.
Based on the above method, cytological evaluation is performed to the compounds described herein (for the detection of CTLL-2 cell, the concentration of the test compound is 300 nM; for the detection of HeLa and HUVEC cell, the concentration of the test compound is […]).

[5] = tested on: HeLa cells; assay: Cell growth activity assay (MTS), HeLa cell model; format: cell-based, human; parameters: activity: dose or concentration left out as unconfirmed; conditions: Homo sapiens, HeLa, 72 h, read-out: HeLa % growth rate
Source text: as §10
HeLa cell is a human cervical cancer cell line, and belongs to epithelial tumor cell line; HUVEC is a human umbilical vein endothelial cell, and belongs to primary endothelial cell; both types of cells express all subtypes except for JAK3.
The change of JAK kinase activity has no significant influence on other cell types except for the immune cells, and both cell models mentioned above are mainly used to evaluate whether there are any other kinase targets besides JAK kinases or there are nonselective cell toxicities.
In this experiment, a cultured cell model is incubated with the test compounds at different concentrations for a specific duration. The effect of the treatment by the test compound on the growth of cells is detected using MTS assay.
as §11
as §12, with “(about 5000” for “(about 20,000”, “highest final” for “highest”, “concentration is 40” for “concentration of 10”, “another 72” for “another 24”
After all culture medium is aspirated out of the well, 100 μL fresh medium and 20 μL pre-formulated mixture of MTS and PMS (in a ratio of 20:1) are added to each well. After incubation at 37° C. for 2 h, it is then detected by a microplate reader (490 nm).
The cell growth inhibitory rate and GI50 of the test compound are calculated as above.
Based on the above method, cytological evaluation is performed to the compounds described herein (for the detection of CTLL-2 cell, the concentration of the test compound is 300 nM; […]).

Sequence of JAK3 (P52333 whole entry): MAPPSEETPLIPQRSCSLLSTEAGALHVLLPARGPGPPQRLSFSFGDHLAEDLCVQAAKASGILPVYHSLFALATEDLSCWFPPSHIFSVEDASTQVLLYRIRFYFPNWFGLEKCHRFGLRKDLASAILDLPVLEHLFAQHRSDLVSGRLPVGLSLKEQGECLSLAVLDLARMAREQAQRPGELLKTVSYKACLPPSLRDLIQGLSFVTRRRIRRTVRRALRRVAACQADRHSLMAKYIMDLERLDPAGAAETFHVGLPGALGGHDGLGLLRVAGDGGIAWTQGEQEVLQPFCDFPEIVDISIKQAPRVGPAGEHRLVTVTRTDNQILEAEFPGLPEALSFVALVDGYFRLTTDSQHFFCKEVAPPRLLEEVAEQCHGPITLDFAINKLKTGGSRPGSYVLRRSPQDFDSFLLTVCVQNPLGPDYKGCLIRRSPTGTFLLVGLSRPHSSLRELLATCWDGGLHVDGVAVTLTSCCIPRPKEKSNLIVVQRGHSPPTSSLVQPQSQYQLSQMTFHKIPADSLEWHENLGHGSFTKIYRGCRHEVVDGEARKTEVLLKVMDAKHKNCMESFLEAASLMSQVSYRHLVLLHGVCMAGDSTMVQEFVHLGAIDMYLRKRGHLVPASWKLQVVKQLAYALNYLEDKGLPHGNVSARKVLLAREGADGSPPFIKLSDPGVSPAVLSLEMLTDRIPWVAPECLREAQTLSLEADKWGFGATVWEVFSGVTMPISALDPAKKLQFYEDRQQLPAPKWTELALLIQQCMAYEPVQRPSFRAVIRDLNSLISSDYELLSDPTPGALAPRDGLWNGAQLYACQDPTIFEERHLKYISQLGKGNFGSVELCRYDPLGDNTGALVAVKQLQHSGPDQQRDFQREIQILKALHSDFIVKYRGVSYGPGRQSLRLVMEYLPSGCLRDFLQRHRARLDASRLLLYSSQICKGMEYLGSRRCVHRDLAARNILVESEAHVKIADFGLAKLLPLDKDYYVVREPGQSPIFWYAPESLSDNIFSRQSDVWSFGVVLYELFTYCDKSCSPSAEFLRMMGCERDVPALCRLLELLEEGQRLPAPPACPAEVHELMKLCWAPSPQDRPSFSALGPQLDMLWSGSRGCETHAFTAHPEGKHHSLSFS
Sequence of JAK2 (O60674 whole entry): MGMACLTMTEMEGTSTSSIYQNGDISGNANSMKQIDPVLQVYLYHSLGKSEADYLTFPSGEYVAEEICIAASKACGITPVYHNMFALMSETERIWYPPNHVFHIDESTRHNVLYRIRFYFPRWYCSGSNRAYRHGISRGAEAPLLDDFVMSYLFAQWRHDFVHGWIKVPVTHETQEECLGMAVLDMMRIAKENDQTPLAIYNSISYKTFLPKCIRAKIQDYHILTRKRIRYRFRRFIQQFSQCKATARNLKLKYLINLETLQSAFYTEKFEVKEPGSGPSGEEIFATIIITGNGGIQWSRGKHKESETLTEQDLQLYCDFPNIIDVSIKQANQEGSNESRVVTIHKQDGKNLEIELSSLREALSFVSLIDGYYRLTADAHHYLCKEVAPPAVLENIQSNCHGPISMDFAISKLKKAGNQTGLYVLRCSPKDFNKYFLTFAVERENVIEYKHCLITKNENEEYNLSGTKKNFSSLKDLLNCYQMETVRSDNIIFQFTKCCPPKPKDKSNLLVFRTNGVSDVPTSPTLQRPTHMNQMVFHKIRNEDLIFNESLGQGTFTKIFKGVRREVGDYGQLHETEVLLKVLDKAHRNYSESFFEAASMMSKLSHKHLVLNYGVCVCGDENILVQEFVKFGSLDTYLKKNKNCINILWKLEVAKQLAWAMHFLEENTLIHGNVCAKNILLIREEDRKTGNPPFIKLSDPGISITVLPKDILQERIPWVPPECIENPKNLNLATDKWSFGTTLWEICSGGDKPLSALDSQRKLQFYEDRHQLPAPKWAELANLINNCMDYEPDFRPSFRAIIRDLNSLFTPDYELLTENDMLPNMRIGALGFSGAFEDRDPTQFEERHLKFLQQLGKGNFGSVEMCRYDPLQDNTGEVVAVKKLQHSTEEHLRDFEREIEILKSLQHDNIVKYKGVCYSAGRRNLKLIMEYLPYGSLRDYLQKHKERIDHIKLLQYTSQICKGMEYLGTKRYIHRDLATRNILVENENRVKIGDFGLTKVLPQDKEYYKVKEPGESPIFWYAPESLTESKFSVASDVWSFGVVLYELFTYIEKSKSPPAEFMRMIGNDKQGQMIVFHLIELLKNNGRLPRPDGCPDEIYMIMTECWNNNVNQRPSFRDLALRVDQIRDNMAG
Sequence of JAK1 (P23458 whole entry): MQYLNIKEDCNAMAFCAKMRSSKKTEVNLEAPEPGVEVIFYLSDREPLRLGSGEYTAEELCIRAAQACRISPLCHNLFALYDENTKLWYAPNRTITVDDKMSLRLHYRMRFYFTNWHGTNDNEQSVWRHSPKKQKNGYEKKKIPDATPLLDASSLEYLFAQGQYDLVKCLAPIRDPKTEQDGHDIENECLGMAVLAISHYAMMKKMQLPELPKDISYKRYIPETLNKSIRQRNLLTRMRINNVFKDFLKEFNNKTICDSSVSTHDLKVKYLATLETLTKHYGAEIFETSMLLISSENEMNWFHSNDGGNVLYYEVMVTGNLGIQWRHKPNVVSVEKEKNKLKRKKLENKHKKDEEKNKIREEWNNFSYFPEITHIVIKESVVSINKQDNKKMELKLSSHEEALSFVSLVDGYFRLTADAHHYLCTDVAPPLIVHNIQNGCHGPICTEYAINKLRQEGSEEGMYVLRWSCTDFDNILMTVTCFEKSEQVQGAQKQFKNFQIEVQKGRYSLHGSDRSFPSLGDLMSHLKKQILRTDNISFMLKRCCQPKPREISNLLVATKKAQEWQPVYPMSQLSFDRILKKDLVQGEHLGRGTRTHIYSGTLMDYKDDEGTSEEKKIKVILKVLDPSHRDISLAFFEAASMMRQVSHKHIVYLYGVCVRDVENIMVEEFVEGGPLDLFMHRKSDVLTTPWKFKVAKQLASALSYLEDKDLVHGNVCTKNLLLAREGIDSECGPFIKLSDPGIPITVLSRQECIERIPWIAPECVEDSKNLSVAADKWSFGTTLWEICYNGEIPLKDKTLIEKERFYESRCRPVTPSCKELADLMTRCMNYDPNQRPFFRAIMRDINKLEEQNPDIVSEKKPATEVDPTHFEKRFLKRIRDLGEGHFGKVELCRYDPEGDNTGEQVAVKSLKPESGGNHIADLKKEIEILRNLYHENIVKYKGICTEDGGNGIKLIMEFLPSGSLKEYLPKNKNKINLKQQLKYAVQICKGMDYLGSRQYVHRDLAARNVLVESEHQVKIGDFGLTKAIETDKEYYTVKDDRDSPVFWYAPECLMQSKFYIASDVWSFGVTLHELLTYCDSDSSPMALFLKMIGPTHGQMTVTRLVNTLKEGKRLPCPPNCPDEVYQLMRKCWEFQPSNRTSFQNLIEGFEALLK

JAK3 RV (ratio between the inhibitory rate of the test compound and that of Xeljanz) [1]	inhibition at 0.03 µM [1] [%]	JAK1 RV (ratio between the inhibitory rate of the test compound and that of Xeljanz) [2]	inhibition at 0.3 µM [2] [%]	inhibition at 0.03 µM [3] [%]	Structure (SMILES)	activity at 0.3 µM [4] [%]	activity [5] [%]
1.01	84	0.53	45	0	C=CC(=O)N(C)c1cc(Nc2ncc(Cl)c(NCCCNC(=O)c3cccc(C#N)c3)n2)ccc1F [Example 95, N-(3-(5-chloro-2-(4-fluoro-3-(N-methylacrylamido)phenylamino)pyrimidinyl-4-amino)propyl)-3-cyanobenzamide]	3	3
0.78	105	0.13	13	0	C=CC(=O)N(C)c1cc(Nc2ncc(Cl)c(NCCCNC(=O)Cc3ccc(C#N)cc3)n2)ccc1F [Example 64, N-(5-(5-chloro-4-(3-(2-(4-cyanophenyl)acetamino)propylamino)pyrimidinyl-2-amino)-2-fluorophenyl)-N-methylacrylamide]	37	78
0.59	116	0.05	9	0	C=CC(=O)N(C)c1cc(Nc2ncc(Cl)c(NCCCNC(=O)c3ccc(C#N)c(F)c3)n2)ccc1F [Example 56, N-(3-(5-chloro-2-(4-fluoro-3-(N-methylacrylamido)phenylamino)pyrimidinyl-4-amino)propyl)-4-cyano-3-fluorobenzamide]	30	60
0.54	105	0.08	14	0	C=CC(=O)N(C)c1cc(Nc2ncc(Cl)c(NCCCNC(=O)c3ccc(C#N)cc3F)n2)ccc1F [Example 52, N-(3-(5-chloro-2-(4-fluoro-3-(N-methylacrylamido)phenylamino)pyrimidinyl-4-amino)propyl)-4-cyano-2-fluorobenzamide]	29	64

More lines, now with the values behind:

Structure (SMILES)	JAK3 RV (ratio between the inhibitory rate of the test compound and that of Xeljanz) [1]	inhibition at 0.03 µM [1] [%]	JAK1 RV (ratio between the inhibitory rate of the test compound and that of Xeljanz) [2]	inhibition at 0.3 µM [2] [%]	inhibition at 0.03 µM [3] [%]	activity at 0.3 µM [4] [%]	activity [5] [%]
C=CC(=O)N(C)c1cc(Nc2ncc(Cl)c(NCCCNC(=O)c3ccc(C(F)(F)F)c(F)c3)n2)ccc1F [Example 103, N-(3-(5-chloro-2-(4-fluoro-3-(N-methylacrylamido)phenylamino)pyrimidinyl-4-amino)propyl)-3-fluoro-4-trifluoromethylbenzamide]	1.04	86	0.87	74	0	3	55
C=CC(=O)N(C)c1cc(Nc2ncc(Cl)c(NCCCNC(=O)c3ccccc3)n2)ccc1F [Example 87, N-(3-(5-chloro-2-(4-fluoro-3-(N-methylacrylamido)phenylamino)pyrimidinyl-4-amino)propyl)benzamide]	0.99	82	0.51	43	0	3	22
C=CC(=O)N(C)c1cc(Nc2ncc(Cl)c(NCCCNC(=O)c3c(F)cc(F)cc3F)n2)ccc1F [Example 36, N-(3-(5-chloro-2-(4-fluoro-3-(N-methylacrylamido)phenylamino)pyrimidinyl-4-amino)propyl)-2,4,6-trifluorobenzamide]	0.53	104	0.25	42	0	32	38
C=CC(=O)N(C)c1cc(Nc2ncc(Cl)c(NCCCNC(=O)c3ccc(C#N)nc3)n2)ccc1F [Example 44, N-(3-(5-chloro-2-(4-fluoro-3-(N-methylacrylamido)phenylamino)pyrimidinyl-4-amino)propyl)-6-cyanonicotinamide]	0.58	113	0.34	58	0	29	39
